Reference: the supplement of paper PMC11061612

Legend:
Experiment in all cases: Bliss excess, mean over the matrix (fraction); higher = more synergy
[1] = system: SK-MM-2 (Plasma Cell Myeloma)
Summary of the method: (§1)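 After 24 hours at 37°C and 5% CO2 in 1536-well plates, cells in DMEM/F12 or RPMI plus 10% FBS received two-drug dose matrices for 72 hours. Viability came from CellTiter-Glo 2.0 luminescence and was scaled as inhibition, anchored at 0 by vehicle wells and at 1 by blank wells. Combination Emax is taken as the second-highest inhibition in the matrix, and Bliss excess as the observed combination effect less EA + EB − EA·EB, with EA and EB the single-agent effects.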

HuO-3N1 (Osteosarcoma) = system: HuO-3N1 (Osteosarcoma)
Summary of the method: as §1

[2] = system: RL95-2 (Endometrial Carcinoma)
Summary of the method: as §1

[3] = system: NKM-1 (Acute Myeloid Leukemia)
Summary of the method: as §1

786-0 (Kidney Carcinoma) = system: 786-0 (Kidney Carcinoma)
Summary of the method: as §1

[4] = system: SW684 (Other Solid Carcinomas)
Summary of the method: as §1

[5] = system: JHH-1 (Hepatocellular Carcinoma)
Summary of the method: as §1

[6] = system: FLO-1 (Esophageal Adenocarcinoma)
Summary of the method: as §1

[7] = system: Caov-3 (Ovarian Carcinoma)
Summary of the method: as §1

CHL-1 (Melanoma) = system: CHL-1 (Melanoma)
Summary of the method: as §1

[8] = system: NCI-H196 (Small Cell Lung Carcinoma)
Summary of the method: as §1

[9] = system: RMG-I (Ovarian Carcinoma)
Summary of the method: as §1

[10] = system: Calu-6 (Non-Small Cell Lung Carcinoma)
Summary of the method: as §1

[11] = system: NCI-H1623 (Lung Adenocarcinoma)
Summary of the method: as §1

[12] = system: NCI-H1563 (Lung Adenocarcinoma)
Summary of the method: as §1

[13] = system: PANC-02-03 (Pancreatic Carcinoma)
Summary of the method: as §1

[14] = system: OCI-AML5 (Acute Myeloid Leukemia)
Summary of the method: as §1

[15] = system: CML-T1 (Chronic Myelogenous Leukemia)
Summary of the method: as §1

[16] = system: LOUCY (T-Lymphoblastic Leukemia)
Summary of the method: as §1

[17] = system: LAMA-84 (Chronic Myelogenous Leukemia)
Summary of the method: as §1

| SMILES | Bliss excess [1] | Bliss excess (HuO-3N1 (Osteosarcoma)) | Bliss excess [2] | Bliss excess [3] | Bliss excess (786-0 (Kidney Carcinoma)) | Bliss excess [4] | Bliss excess [5] | Bliss excess [6] | Bliss excess [7] | Bliss excess (CHL-1 (Melanoma)) | Bliss excess [8] | Bliss excess [9] | Bliss excess [10] | Bliss excess [11] | Bliss excess [12] | Bliss excess [13] | Bliss excess [14] | Bliss excess [15] | Bliss excess [16] | Bliss excess [17] |
| --- | --- | --- | --- | --- | --- | --- | --- | --- | --- | --- | --- | --- | --- | --- | --- | --- | --- | --- | --- | --- |
| CN(CCO)CC[C@H](CSc1ccccc1)Nc1ccc(S(=O)(=O)NC(=O)c2ccc(N3CCC([C@@H](O)c4ccccc4-c4ccc(Cl)cc4)CC3)cc2)cc1S(=O)(=O)C(F)(F)F [AZD4320] + CN(C)CCCOc1ccc(-c2ccc3ncc4c(c3c2)n(C2CCOCC2)c(=O)n4C)cn1 [AZD0156] (first compound max 1 µM, 7x7, partner max 1 µM) | 0.0468 | -0.0021 | -0.0408 | -0.0871 | -0.0503 | -0.0641 | -0.0513 | 0.0007 | -0.0198 | -0.0242 | -0.0414 | -0.048 | -0.0156 | -0.071 | -0.0496 | -0.0553 | -0.0015 | 0.013 | -0.006 | -0.0089 |
| COc1cccc(OCCCN)c1-c1cc(Nc2cnc(C#N)cn2)n[nH]1 [Prexasertib] + Cc1cc2ncnn2cc1Nc1ncc2c(n1)n(C1CCOCC1)c(=O)n2C [AZD7648] (first compound max 1 µM, 7x7, partner max 10 µM) | -0.0512 | -0.0498 | -0.0263 | -0.0271 | -0.0276 | -0.0408 | 0.0093 | -0.0817 | -0.0376 | -0.0122 | -0.0361 | -0.0235 | -0.0354 | -0.0588 | -0.0146 | -0.0019 | 0.0718 | -0.0175 | -0.0021 | -0.0208 |
| Cc1c2c(nn1C)CSCc1cc(n(C)n1)CSc1cc(c3ccccc3c1)OCCCc1c(C(=O)O)n(C)c3c-2c(Cl)ccc13 [AZD5991] + C=CCn1c(=O)c2cnc(Nc3ccc(N4CCN(C)CC4)cc3)nc2n1-c1cccc(C(C)(C)O)n1 [AZD1775] (first compound max 1 µM, partner max 1 µM) | -0.112 | 0.006 | 0.0116 | -0.0519 | -0.0387 | -0.0161 | 0.03 | -0.0047 | -0.0274 | -0.0218 | -0.0266 | -0.0369 | -0.0963 | 0.0167 | 0.0004 | -0.0195 | -0.0036 | -0.0151 | -0.003 | 0.0422 |
| COc1cc2c(cc1OCCCCCOc1cc3c(cc1OC)C(=O)N1C=C(C)C[C@H]1C=N3)N=C[C@@H]1CC(C)=CN1C2=O [SG3199] + O=C(c1cc(Cc2n[nH]c(=O)c3ccccc23)ccc1F)N1CCN(C(=O)C2CC2)CC1 [Olaparib] (first compound max 0.001 µM, 7x7, partner max 10 µM) | -0.0179 | -0.0446 | -0.0383 | -0.0362 | -0.0223 | -0.056 | -0.0059 | -0.0486 | -0.0475 | -0.0227 | -0.0387 | -0.0599 | -0.013 | -0.0342 | -0.0428 | -0.0487 | 0.0232 | -0.006 | -0.039 | -0.0015 |
